# Laboratory results taken from ChEMBL document CHEMBL1201862, “PubChem BioAssay data set” (2004).
# Active and inactive are the calls of the source.
# How the values were obtained:
# [1] = target: T1, Rac GTPase-activating protein 1 (Homo sapiens, UniProt Q9H0H5); assay: MgcRacGAP GTPase-activating activity inhibitors, confirmation, biochemical, ADP Hunter fluorescence, primary and confirmatory (AID 624330); type: functional
# T1 sequence (Q9H0H5 whole entry): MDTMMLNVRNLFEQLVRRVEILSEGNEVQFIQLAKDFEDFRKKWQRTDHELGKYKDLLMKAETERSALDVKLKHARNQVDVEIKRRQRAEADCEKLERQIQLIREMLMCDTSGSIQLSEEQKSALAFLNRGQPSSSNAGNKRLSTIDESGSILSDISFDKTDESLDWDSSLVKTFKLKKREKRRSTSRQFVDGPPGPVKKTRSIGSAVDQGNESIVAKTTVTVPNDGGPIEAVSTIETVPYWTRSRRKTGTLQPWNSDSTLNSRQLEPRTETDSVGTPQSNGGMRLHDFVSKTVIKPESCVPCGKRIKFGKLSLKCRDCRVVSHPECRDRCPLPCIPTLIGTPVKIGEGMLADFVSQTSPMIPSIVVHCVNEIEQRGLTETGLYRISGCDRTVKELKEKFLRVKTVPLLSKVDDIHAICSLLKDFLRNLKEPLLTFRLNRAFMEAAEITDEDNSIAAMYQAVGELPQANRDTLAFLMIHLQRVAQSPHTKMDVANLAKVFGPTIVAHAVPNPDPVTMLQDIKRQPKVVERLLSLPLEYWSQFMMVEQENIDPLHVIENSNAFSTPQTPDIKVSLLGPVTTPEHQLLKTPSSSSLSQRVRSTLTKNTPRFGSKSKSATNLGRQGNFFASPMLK
# cells = type: functional
# [2] = Luminescence Cell-Based Dose Response HTS to Identify Activators of Luciferase Translation or Activity in H4 […] Cells. [Related pubchem assays: 1829 (Project Summary), 1814 (Primary HTS)]; type: functional
# H4 = assay: Luminescence Cell-Based Dose Response HTS to Identify Activators of 5'UTR Stem-Loop Driven Prion Protein mRNA Translation in H4 Neuroglioblastoma Cells. [Related pubchem assays: 1829 (Project Summary), 1814 (Primary HTS)]; type: functional; conditions: Homo sapiens
# [3] = Luminescence Cell-Based Dose Confirmation HTS to Identify Activators of 5'UTR Stem-Loop Driven Alpha-Synuclein mRNA Translation in H4 Neuroglioblastoma Cells. [Related pubchem assays: 1829 (Project Summary), 1814 (Primary HTS)]; type: functional
# Genome polyprotein = Genome polyprotein (dengue virus type 2, UniProt P29990); assay: Dengue-2 NS5 methyltransferase inhibitors, primary screen, biochemical, confirmation dose response (AID 588689); type: functional
# [4] = target: T2, Zinc finger protein mex-5 (Caenorhabditis elegans, UniProt Q9XUB2); assay: MEX-5/TCR-2 RNA interaction inhibitors, dose response, biochemical, C. elegans, fluorescence polarization (AID 1960)
# T2 sequence (Q9XUB2 whole entry): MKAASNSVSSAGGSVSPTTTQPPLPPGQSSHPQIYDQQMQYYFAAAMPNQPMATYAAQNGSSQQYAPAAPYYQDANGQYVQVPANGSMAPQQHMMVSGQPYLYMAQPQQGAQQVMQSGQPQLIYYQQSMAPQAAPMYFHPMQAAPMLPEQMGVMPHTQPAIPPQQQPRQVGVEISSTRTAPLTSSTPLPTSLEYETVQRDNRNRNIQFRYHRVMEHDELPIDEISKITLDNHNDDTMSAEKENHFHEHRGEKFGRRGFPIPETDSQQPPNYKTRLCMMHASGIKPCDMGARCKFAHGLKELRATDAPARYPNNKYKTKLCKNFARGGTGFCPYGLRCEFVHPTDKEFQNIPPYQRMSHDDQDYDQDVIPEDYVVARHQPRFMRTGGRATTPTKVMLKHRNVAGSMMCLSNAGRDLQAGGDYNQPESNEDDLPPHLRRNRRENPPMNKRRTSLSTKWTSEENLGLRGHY
# [5] = target: T3, RNA-binding protein pos-1 (Caenorhabditis elegans, UniProt G5EF15); assay: inhibitors of POS-1/mex-3 RNA binding, dose response, biochemical, fluorescence polarization (AID 1964);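 further: purified POS-1 fused to maltose binding protein made in E. coli; potency of compounds blocking POS-1 binding to fluorescent RNA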
# T3 sequence (G5EF15 whole entry): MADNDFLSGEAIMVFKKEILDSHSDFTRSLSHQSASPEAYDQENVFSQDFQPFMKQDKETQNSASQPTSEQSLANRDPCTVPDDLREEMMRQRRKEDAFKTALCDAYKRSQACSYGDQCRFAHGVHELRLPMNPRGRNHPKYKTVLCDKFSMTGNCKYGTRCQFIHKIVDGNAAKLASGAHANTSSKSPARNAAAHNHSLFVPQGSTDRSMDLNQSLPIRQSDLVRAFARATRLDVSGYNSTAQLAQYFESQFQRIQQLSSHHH
# [6] = Shn3 3'UTR reporter inhibitors, dose response, cell-based, Clone20 osteoblasts, firefly luciferase, cherry-picked (AID 624132); type: functional;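 further: firefly luciferase luminescence from reporter carrying the Shn3 3'UTR in osteoblasts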
# [7] = control 3'UTR Renilla luciferase suppression, dose response, counter-screen for Shn3 inhibitor project, cell-based, Clone20-Shn3RL, cherry-picked (AID 624133); type: functional
# [8] = HepG2 cell cytotoxicity, dose response, cytotoxicity control for Shn3 inhibitor project, CellTiter-Glo, cherry-picked (AID 624134); type: functional, cell-based
# [9] = inhibitors of intracellular T. cruzi replication, confirmation, NIH3T3 host cells, beta-gal luminescence (AID 2044); type: functional, cell-based;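 further: intracellular parasites grown in NIH/3T3 mouse fibroblasts as host cells; luminescent beta-galactosidase reporter signal from transgenic T. cruzi replicating inside host cells; inhibitors lower the luminescence signal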
# [10] = cytotoxicity toward NIH3T3 fibroblasts, dose response, counter-screen, cell-based, ATP luminescence, mouse fibroblasts (AID 2010); type: functional;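 further: cells exposed to compound for about 90 hours before reading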
# Nonstructural protein 1 = Nonstructural protein 1 (Influenza A virus, UniProt Q194T2); type: functional, Influenza A virus (A/California/07/2009(H1N1))
# [11] = target: Luciferin 4-monooxygenase (Photinus pyralis, UniProt P08659); assay: firefly luciferase enzyme inhibitors, dose response, biochemical, luminescence (AID 1891)
# [12] = Luminescence Cell-Based Dose Confirmation HTS to Identify Inhibitors of Platelet Dense Granule Release. [Related pubchem assays: 1663 (Primary HTS), 1678 (Summary of Project)]; type: functional
# P388 = assay: cells; type: functional; conditions: Mus musculus
# SN12K1 = assay: cells; type: functional; conditions: Homo sapiens
# P388/ADR = assay: cells; type: functional; conditions: Mus musculus
# Fatty acid synthase = Fatty acid synthase (Homo sapiens, UniProt P49327); assay: FAS thioesterase domain inhibitors, dose response, biochemical, kinetic fluorescence intensity (AID 624326); type: functional;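 further: rate of fluorescence rise from hydrolysis of a fluorogenic O-methyl fluorescein ester substrate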
# Sequence of Fatty acid synthase (P49327 whole entry, the tested form may be a part): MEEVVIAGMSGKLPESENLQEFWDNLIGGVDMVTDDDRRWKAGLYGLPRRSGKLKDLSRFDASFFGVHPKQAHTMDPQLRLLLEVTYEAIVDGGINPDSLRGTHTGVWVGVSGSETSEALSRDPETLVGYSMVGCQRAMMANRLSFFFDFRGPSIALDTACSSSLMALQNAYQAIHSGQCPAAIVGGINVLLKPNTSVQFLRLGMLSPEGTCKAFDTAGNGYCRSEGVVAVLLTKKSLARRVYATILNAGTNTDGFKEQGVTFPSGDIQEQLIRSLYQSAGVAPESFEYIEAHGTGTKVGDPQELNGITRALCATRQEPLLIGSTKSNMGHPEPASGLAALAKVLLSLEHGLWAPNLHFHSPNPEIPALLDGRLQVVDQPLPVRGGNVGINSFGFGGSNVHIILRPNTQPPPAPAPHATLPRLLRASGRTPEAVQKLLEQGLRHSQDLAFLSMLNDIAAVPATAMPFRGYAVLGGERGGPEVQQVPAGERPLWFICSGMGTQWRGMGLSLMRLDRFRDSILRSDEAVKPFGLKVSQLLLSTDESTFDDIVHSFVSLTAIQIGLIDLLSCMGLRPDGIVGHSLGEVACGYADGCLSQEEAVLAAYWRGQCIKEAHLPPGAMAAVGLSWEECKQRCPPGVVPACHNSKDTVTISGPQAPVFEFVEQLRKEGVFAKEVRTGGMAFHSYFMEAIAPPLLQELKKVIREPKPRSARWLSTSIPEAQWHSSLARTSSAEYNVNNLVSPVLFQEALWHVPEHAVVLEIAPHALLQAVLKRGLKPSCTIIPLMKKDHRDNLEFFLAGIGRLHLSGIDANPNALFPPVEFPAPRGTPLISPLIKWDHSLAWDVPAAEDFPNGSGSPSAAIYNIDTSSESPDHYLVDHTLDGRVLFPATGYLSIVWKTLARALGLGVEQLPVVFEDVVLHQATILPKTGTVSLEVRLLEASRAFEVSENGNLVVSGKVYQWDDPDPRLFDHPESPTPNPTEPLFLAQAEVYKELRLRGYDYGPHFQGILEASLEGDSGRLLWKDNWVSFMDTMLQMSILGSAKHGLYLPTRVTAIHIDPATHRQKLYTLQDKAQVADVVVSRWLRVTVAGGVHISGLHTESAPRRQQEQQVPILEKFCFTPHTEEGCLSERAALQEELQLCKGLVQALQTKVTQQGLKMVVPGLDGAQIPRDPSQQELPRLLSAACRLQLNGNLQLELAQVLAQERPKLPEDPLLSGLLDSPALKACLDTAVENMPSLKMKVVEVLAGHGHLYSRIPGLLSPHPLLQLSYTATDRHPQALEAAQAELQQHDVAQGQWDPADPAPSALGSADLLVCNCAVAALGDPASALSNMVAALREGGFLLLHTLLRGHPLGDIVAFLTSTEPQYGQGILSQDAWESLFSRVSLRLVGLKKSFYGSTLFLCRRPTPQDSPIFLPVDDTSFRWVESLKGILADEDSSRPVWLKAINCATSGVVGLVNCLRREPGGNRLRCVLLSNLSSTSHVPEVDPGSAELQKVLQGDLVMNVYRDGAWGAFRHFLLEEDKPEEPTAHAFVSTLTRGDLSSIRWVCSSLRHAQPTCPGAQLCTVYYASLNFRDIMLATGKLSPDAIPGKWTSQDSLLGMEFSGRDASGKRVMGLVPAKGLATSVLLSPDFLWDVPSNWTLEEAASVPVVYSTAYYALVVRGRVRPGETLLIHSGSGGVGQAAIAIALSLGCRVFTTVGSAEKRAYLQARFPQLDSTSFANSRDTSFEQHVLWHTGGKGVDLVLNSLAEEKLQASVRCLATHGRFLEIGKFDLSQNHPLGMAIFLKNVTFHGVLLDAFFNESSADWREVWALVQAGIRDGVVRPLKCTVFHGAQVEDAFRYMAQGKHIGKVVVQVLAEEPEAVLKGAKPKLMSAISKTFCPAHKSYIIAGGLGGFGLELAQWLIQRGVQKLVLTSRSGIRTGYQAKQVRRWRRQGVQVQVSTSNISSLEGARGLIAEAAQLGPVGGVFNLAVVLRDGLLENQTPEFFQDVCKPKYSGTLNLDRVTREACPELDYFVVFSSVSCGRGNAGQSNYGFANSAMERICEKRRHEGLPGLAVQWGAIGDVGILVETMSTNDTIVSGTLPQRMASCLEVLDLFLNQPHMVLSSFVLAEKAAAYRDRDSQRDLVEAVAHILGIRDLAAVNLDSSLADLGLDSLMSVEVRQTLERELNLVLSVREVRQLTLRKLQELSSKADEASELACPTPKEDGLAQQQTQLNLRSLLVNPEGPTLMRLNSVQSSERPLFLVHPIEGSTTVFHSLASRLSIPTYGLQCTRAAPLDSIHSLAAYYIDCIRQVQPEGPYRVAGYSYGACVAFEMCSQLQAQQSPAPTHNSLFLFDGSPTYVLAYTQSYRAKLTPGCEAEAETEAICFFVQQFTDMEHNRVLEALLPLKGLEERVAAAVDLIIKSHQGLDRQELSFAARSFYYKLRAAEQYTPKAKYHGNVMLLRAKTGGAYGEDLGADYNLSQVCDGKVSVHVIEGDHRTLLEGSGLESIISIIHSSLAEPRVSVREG
# Sequence of Genome polyprotein (P29990 2492-3391 limits assumed): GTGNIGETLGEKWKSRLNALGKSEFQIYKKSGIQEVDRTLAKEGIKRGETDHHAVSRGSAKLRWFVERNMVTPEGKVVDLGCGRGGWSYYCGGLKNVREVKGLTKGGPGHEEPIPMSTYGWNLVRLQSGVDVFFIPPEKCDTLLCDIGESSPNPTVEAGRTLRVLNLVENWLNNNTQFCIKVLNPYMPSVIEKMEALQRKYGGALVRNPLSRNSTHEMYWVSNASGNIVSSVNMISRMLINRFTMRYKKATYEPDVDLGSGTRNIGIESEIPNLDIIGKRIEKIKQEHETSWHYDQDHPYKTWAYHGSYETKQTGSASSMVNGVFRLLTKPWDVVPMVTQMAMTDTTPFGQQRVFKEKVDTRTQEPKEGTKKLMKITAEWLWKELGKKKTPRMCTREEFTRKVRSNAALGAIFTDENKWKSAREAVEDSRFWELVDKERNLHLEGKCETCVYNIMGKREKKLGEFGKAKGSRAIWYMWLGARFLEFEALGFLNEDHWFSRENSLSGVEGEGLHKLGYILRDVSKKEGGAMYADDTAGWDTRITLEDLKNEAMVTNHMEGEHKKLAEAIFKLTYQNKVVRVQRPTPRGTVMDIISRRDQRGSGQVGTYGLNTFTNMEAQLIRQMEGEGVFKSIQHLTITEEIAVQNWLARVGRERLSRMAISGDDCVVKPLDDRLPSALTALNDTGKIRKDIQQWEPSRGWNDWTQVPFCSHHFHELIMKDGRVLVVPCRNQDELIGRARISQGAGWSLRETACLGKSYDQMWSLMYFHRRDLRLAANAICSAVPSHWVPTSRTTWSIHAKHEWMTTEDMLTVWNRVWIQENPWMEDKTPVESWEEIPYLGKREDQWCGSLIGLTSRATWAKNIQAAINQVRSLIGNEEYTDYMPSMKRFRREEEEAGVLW
# Sequence of Nonstructural protein 1 (Q194T2 whole entry): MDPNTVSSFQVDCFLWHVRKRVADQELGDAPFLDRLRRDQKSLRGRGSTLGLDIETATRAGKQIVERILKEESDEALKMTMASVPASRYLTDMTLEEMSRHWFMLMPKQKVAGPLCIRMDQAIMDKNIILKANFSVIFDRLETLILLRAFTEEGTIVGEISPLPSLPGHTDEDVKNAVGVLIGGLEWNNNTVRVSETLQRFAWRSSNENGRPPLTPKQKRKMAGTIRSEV
# Sequence of Luciferin 4-monooxygenase (P08659 whole entry): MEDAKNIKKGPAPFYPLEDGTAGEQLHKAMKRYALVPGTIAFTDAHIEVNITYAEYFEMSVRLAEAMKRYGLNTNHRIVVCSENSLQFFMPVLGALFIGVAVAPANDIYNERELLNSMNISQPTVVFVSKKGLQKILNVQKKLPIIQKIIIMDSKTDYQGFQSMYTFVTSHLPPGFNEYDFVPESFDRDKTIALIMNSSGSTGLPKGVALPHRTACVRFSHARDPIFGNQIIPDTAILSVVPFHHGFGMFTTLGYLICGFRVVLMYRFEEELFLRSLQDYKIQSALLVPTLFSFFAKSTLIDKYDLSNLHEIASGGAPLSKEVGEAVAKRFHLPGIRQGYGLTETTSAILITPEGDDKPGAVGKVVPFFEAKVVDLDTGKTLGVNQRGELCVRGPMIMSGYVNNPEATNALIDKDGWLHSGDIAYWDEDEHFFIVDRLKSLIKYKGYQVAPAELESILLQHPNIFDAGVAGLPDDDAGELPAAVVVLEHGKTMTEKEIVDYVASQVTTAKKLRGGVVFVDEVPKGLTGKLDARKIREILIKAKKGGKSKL
smiles,measurement,setting,value
c1ccc(-c2ccccc2OCCCCn2ccnc2)cc1,IC50,[1],127 µM (active)
same,IC50,cells,18.1 µM (active)
CCOC(=O)c1cc(C)n(CCc2ccccc2)c1C,EC50,[2],15.7 µM (active)
same,EC50,H4,> 120 µM (not active)
same,EC50,[3],> 120 µM (not active)
CCc1cccc(NC(=O)Nc2cccs2)c1,EC50,[2],2.48 µM (active)
same,EC50,H4,> 120 µM (not active)
same,EC50,[3],14.6 µM (active)
O=C(O)/C=C/C(=O)c1c(-c2ccccc2)[nH]c2ccccc12,IC50,Genome polyprotein,> 100 µM (active)
O=C1NC(=O)C(=Cc2cc(Cl)ccc2OCc2ccc(C(=O)O)cc2)C(=O)N1,IC50,Genome polyprotein,20.7 µM (active)
CC(=O)c1ccc2c(c1)C1C=CCC1C(c1ccncc1)N2 (stereo unspecified),EC50,[2],9.61 µM (active)
same,EC50,H4,25.5 µM (active)
same,EC50,[4],47.7 µM (active)
same,EC50,[5],> 300 µM (not active)
same,EC50,[3],14.4 µM (active)
COc1ccc(C(=O)C(C)OC(=O)c2cccc(S(=O)(=O)Nc3cc(Cl)c(OC)cc3OC)c2)cc1 (stereo unspecified),AC50,[6],5.54 µM (active)
same,AC50,[7],28.6 µM (active)
same,AC50,[8],> 70 µM (inactive)
CCCOC1CCCN(C(=O)c2cc(COc3cncc(Cl)c3)on2)C1 (stereo unspecified),EC50,[2],47.5 µM (active)
same,EC50,H4,59.7 µM (active)
same,EC50,[3],3.46 µM (active)
O=C1ON=C(c2ccc([N+](=O)[O-])cc2)/C1=C/c1ccccc1O,IC50,Genome polyprotein,32.4 µM (active)
O=C(Nc1ccccc1F)c1ccc2nc(N3C(=O)CCC3=O)sc2c1,EC50,[2],32.5 µM (active)
same,EC50,H4,8.54 µM (active)
same,EC50,[3],29.8 µM (active)
CCCCNC(=O)COC(=O)c1cc(Br)ccc1Cl,IC50,cells,9.24 µM (active)
Cc1ccc(S(=O)(=O)NCc2ccc3c(c2)cc(C)n3C)cc1,EC50,[9],3.2 µM (active)
same,EC50,[10],> 60 µM (not active)
same,IC50,Nonstructural protein 1,86.6 µM (active)
CCN(CC)CCNC(=O)c1nn(-c2ccc(C)cc2)c(=O)c2c1c1ccccc1n2C,EC50,[2],> 120 µM (not active)
same,EC50,H4,61.3 µM (active)
same,EC50,[3],15 µM (active)
same,EC50,[9],0.157 µM (active)
same,EC50,[10],> 30 µM (not active)
COc1cc(O)c2c(=O)c(-c3ccc(O[C@@H]4O[C@H](CO)[C@@H](O)[C@H](O)[C@H]4O)cc3)coc2c1,EC50,[2],38.6 µM (active)
same,EC50,H4,21.2 µM (active)
same,EC50,[3],0.25 µM (active)
O=C(/C=C/c1ccccc1Cl)Nc1ccncc1,EC50,[2],56.2 µM (active)
same,EC50,H4,0.524 µM (active)
same,EC50,[11],20.6 µM (active)
same,EC50,[12],26.7 µM (active)
same,EC50,[3],26.2 µM (active)
Cc1cc(-c2sccc2Br)nc(-n2cccc2)n1,EC50,[2],13.3 µM (active)
same,EC50,H4,9.52 µM (active)
same,EC50,[3],> 120 µM (not active)
C=C1CC(COc2cc(=O)oc3ccccc23)(c2ccccc2)OC1=O (stereo unspecified),AC50,[6],3.93 µM (active)
same,AC50,[7],7.58 µM (active)
same,AC50,[8],13.7 µM (active)
CC(C)(C)OC(=O)NCCCCCNC(=O)c1[nH]cnc1C(=O)NCc1ccc(CNC(=O)OC(C)(C)C)cc1,AC50,[6],3.95 µM (active)
same,AC50,[7],8.62 µM (active)
same,AC50,[8],> 70 µM (inactive)
CCN1CC2(CO)CCC(OC)C34C5CC6C(OC)CC(O)(C5C6OC)C(O)(C(OC)C23)C14 (stereo unspecified),GI50,P388,> 174 µM (inactive)
same,GI50,SN12K1,> 375 µM (inactive)
same,GI50,P388/ADR,> 80.7 µM (inactive)
O=C(O)CCC(NC(=O)c1ccc(Nc2nc3ccc(C(F)(F)F)cc3nc2-c2ccccc2)cc1)C(=O)O (stereo unspecified),GI50,P388,35 µM (inactive)
same,GI50,SN12K1,> 100 µM (inactive)
same,GI50,P388/ADR,71.1 µM (inactive)
Cn1c(-c2ccccc2)cc(-c2cccs2)c1-c1cccs1,GI50,P388,10.8 µM (inactive)
same,GI50,SN12K1,18.1 µM (inactive)
same,GI50,P388/ADR,33.2 µM (inactive)
C=C1C(=O)OC2CC3(C)OC3C3OC3C3=CC(OC3=O)C12 (stereo unspecified),AC50,[6],1.45 µM (active)
same,AC50,[7],1.86 µM (active)
same,AC50,[8],19.2 µM (active)
Cn1cccc1/C=N/NC(=O)c1ccncc1,IC50,cells,0.75 µM (active)
O=CNc1cccc2c3c([nH]c12)CCCCCC3,GI50,P388,> 65.3 µM (inactive)
same,GI50,SN12K1,> 100 µM (inactive)
same,GI50,P388/ADR,73.1 µM (inactive)
CC1[C@@H]2CC=C3[C@H]4CCC5Cc6nc7c(nc6C[C@@]5(C)C4(O)CC(=O)[C@]32CO[C@]12OC(C)(C)CC2O)CC1CC[C@@H]2C3=C[C@H]4O[C@@]5(O[C@@](C)(CO)C[C@@H]5O)C(C)[C@@]4(O)[C@]3(C)[C@@H](O)CC2[C@]1(C)C7 (stereo partly specified),GI50,P388,0.00036 µM (active)
same,GI50,P388/ADR,0.00879 µM (active)
CN(C)CCNCc1c2ccccc2c(CNCCN(C)C)c2ccccc12,GI50,P388,36.9 µM (inactive)
same,GI50,SN12K1,25 µM (inactive)
same,GI50,P388/ADR,> 100 µM (inactive)
O=C(N/N=C/c1ccccn1)c1cccc(S(=O)(=O)Nc2ccccc2Cl)c1,IC50,cells,47.1 µM (active)
O=C(N/N=C/c1cccc2nccnc12)c1ccncc1,IC50,cells,0.21 µM (active)
Cc1cc(C(=O)N/N=C/c2cc([N+](=O)[O-])cc(C)c2O)[nH]n1,IC50,Fatty acid synthase,11.8 µM (active)
same,IC50,Nonstructural protein 1,8.76 µM (active)
O=C(N/N=C/C=C/c1ccccc1[N+](=O)[O-])c1ccncc1,IC50,cells,0.4 µM (active)
Nc1nc(=O)n(C2OC(CO)C(O)C2O)cc1F (stereo unspecified),GI50,P388,< 0.0107 µM (active)
same,GI50,SN12K1,0.0705 µM (active)
same,GI50,P388/ADR,0.016 µM (active)
O[C@H]1[C@H](O)[C@@H](O)CN2CC[C@H](O)[C@H]12 [CASTANOSPERMINE],GI50,P388,> 100 µM (inactive)
same,GI50,SN12K1,> 100 µM (inactive)
same,GI50,P388/ADR,> 91 µM (inactive)
CN(C)/N=N/c1[nH]cnc1C(N)=O [DACARBAZINE],GI50,P388,19.3 µM (inactive)
same,GI50,SN12K1,28.6 µM (inactive)
same,GI50,P388/ADR,40.3 µM (inactive)
